In US6359144B1, “Combinatorial libraries of bicyclic guanidine derivatives and compounds therein” (Lion Bioscience AG, priority 1997, dated 2002):
Several values for one entry are separate records, joined by “and”; a condition that tells them apart may be missing. Identical values can stand only once.

Target: T1, calmodulin (Homo sapiens, UniProt P0DP23)
T1 construct: purchased Boehringer Mannheim (calmodulin); Sigma (PDE, 5'-nucleotidase)
Assay: Calmodulin-dependent phosphodiesterase (CaMPDE) assay
Format: biochemical
Conditions: 53 individual compounds, Table 17
Experimental: An example of an assay that identifies CaM antagonists is a CaMPDE assay, such as the one whose results are shown in Examples IX to XII, below. Samples are mixed with 50 μl of assay buffer (360 mM Tris, 360 mM Imidazole, 45 mM Mg(CH3COO)2, pH 7.5) and 10 μl of CaCl2 (4.5 mM) to a final volume of 251 μl. 25 μl of calmodulin stock solution (Boehringer Mannheim; 0.01 μg/μl) is then added and the samples then sit at room temperature for 10 minutes. 14 μl of PDE (Sigma; 2 Units dissolved in 4 ml of water; stock concentration: 0.0005 Units/μl) is then added, followed by 50 μl of 5′-nucleotidase (Sigma; 100 Units dissolved in 10 ml of 10 mM Tris-HCl containing 0.5 mM Mg(CH3COO)2, pH 7.0; stock concentration: 10 Units/ml). The samples are then incubated for 10 minutes at 30° C. 50 μl of adenosine 3′,5′-cyclic monophosphate (cAMP) (20 mM in water at pH 7.0) is added, the samples incubated for 1 hour at 30° C. and then vortexed. 200 μl of trichloroacetic acid (TCA) (55% in water) is added to a 200 μl sample aliquot, which is then vortexed and centrifuged for 10 minutes. 80 μl of the resulting supernatants of each sample is transferred to a 96-well plate, with 2 wells each containing 80 μl of each sample. 80 μl of ammonium molybdate (1.1% in 1.1N H2SO4) is then added to all the wells, and the OD of each were determined at 730 nm, with the values later subtracted to the final OD reading. 16 μl of reducing agent (6 g sodium bisulfite, 0.6 g sodium sulfite and 125 mg of 1-amino-2-naphtol-4-sulfonic acid in 50 ml of water) is then added to one of each sample duplicate and 16 μl of water is added to the other duplicate. After sitting for 1 hour at room temperature, the OD of each well is determined at 730 nm. […]

IC50	Structure (SMILES)
4.43 µM	CC(C)(C)C1CCC(CN2C3=NC[C@@H](CC4CCCCC4)N3C[C@H]2CC2CCCCC2)CC1 (some centres unmarked)
4.73 µM	CC(C)(C)C1CCC(CN2C3=NC[C@@H](CC4CCCCC4)N3C[C@H]2C2CCCCC2)CC1 (some centres unmarked)
2.81 µM	CC(C)(C)C1CCC(CN2C3=NC[C@@H](CC4CCCCC4)N3C[C@@H]2CC2CCCCC2)CC1 (some centres unmarked)
4.71 µM	CC(C)(C)C1CCC(CN2C3=NC[C@@H](CC4CCCCC4)N3C[C@@H]2C2CCCCC2)CC1 (some centres unmarked)
15.5 µM	CC(C)(C)C1CCC(CN2C3=NC[C@@H](C4CCCCC4)N3C[C@H]2C2CCCCC2)CC1 (some centres unmarked)
10.7 µM	CC(C)(C)C1CCC(CN2C3=NC[C@@H](C4CCCCC4)N3C[C@@H]2C2CCCCC2)CC1 (some centres unmarked)
1.89 µM	CC(C)(C)C1CCC(CN2C3=NC[C@H](CC4CCCCC4)N3C[C@H]2CC2CCCCC2)CC1 (some centres unmarked)
3.98 µM	CC(C)(C)C1CCC(CN2C3=NC[C@H](CC4CCCCC4)N3C[C@H]2C2CCCCC2)CC1 (some centres unmarked)
2.24 µM	CC(C)(C)C1CCC(CN2C3=NC[C@H](CC4CCCCC4)N3C[C@@H]2CC2CCCCC2)CC1 (some centres unmarked)
10.1 µM	CC(C)(C)C1CCC(CN2C3=NC[C@H](CC4CCCCC4)N3C[C@@H]2C2CCCCC2)CC1 (some centres unmarked)
13.1 µM	CC(C)(C)C1CCC(CN2C3=NC[C@H](C4CCCCC4)N3C[C@H]2C2CCCCC2)CC1 (some centres unmarked)
14.6 µM	CC(C)(C)C1CCC(CN2C3=NC[C@H](C4CCCCC4)N3C[C@@H]2C2CCCCC2)CC1 (some centres unmarked)
21.5 µM	CC(C)(C)C1CCC(CN2C3=NC[C@H](Cc4ccccc4)N3C[C@@H]2Cc2ccccc2)CC1 (some centres unmarked)
8.65 µM	CC(C)(C)C1CCC(CN2C3=NCC(C4CCCCC4)N3CC2CC2CCCCC2)CC1 (single isomer, unassigned) [listing 1 of 4 here]
3.19 µM	CC(C)(C)C1CCC(CN2C3=NCC(C4CCCCC4)N3CC2CC2CCCCC2)CC1 (single isomer, unassigned) [listing 2 of 4 here]
2.4 µM	CC(C)(C)C1CCC(CN2C3=NCC(C4CCCCC4)N3CC2CC2CCCCC2)CC1 (single isomer, unassigned) [listing 3 of 4 here]
5.21 µM	CC(C)(C)C1CCC(CN2C3=NCC(C4CCCCC4)N3CC2CC2CCCCC2)CC1 (single isomer, unassigned) [listing 4 of 4 here]
10.2 µM	C1CCC(CC2CN3C(=NCC3CC3CCCCC3)N2CCC23CC4CC(CC(C4)C2)C3)CC1 (single isomer, unassigned) [D-cha/D-cha/1-adamantaneacetic acid]
3.97 µM	C1CCC(CC2CN3C(=NCC3CC3CCCCC3)N2CCC23CC4CC(CC(C4)C2)C3)CC1 (single isomer, unassigned) [D-cha/L-Cha/1-adamantaneacetic acid]
15.1 µM	C1CCC(CC2CN3C(=NCC3C3CCCCC3)N2CCC23CC4CC(CC(C4)C2)C3)CC1 (single isomer, unassigned) [D-chg/D-cha/1-adamantaneacetic acid]
21.5 µM	C1CCC(C2CN3C(=NCC3C3CCCCC3)N2CCC23CC4CC(CC(C4)C2)C3)CC1 (single isomer, unassigned) [D-chg/D-chg/1-adamantaneacetic acid]
4.74 µM and 6.46 µM	C1CCC(CC2CN3C(=NCC3C3CCCCC3)N2CCC23CC4CC(CC(C4)C2)C3)CC1 (single isomer, unassigned) [D-chg/L-Cha/1-adamantaneacetic acid]

IC50	Structure (SMILES)
12.9 µM	C1CCC(C2CN3C(=NCC3C3CCCCC3)N2CCC23CC4CC(CC(C4)C2)C3)CC1 (single isomer, unassigned) [D-chg/L-Chg/1-adamantaneacetic acid]
2.25 µM	C1CCC(CC2CN3C(=NCC3CC3CCCCC3)N2CCC23CC4CC(CC(C4)C2)C3)CC1 (single isomer, unassigned) [L-Cha/D-cha/1-adamantaneacetic acid]
7.86 µM	C1CCC(CC2CN3C(=NCC3CC3CCCCC3)N2CCC23CC4CC(CC(C4)C2)C3)CC1 (single isomer, unassigned) [L-Cha/L-Cha/1-adamantaneacetic acid]
2.83 µM	C1CCC(CC2CN3C(=NCC3C3CCCCC3)N2CCC23CC4CC(CC(C4)C2)C3)CC1 (single isomer, unassigned) [L-Chg/D-cha/1-adamantaneacetic acid]
4.61 µM	C1CCC(C2CN3C(=NCC3C3CCCCC3)N2CCC23CC4CC(CC(C4)C2)C3)CC1 (single isomer, unassigned) [L-Chg/D-chg/1-adamantaneacetic acid]
13.4 µM and 25.8 µM	C1CCC(CC2CN3C(=NCC3C3CCCCC3)N2CCC23CC4CC(CC(C4)C2)C3)CC1 (single isomer, unassigned) [L-Chg/L-Cha/1-adamantaneacetic acid]
19.8 µM	C1CCC(C2CN3C(=NCC3C3CCCCC3)N2CCC23CC4CC(CC(C4)C2)C3)CC1 (single isomer, unassigned) [L-Chg/L-Chg/1-adamantaneacetic acid]
40.1 µM	CCN1C2=NC[C@@H](C)N2C[C@@H]1Cc1ccccc1 [D-ala/L-Phe/acetic acid]
17.4 µM	C1CCC(C[C@@H]2CN=C3N2C[C@@H](C2CCCCC2)N3CCC23CC4CC(CC(C4)C2)C3)CC1 [D-cha/D-chg/1-adamantaneacetic acid]
10.1 µM	C1CCC(C[C@@H]2CN=C3N2C[C@H](C2CCCCC2)N3CCC23CC4CC(CC(C4)C2)C3)CC1 [D-cha/L-Chg/1-adamantaneacetic acid]
15.7 µM	C1CCC(CCCN2C3=NC[C@@H](C4CCCCC4)N3C[C@@H]2CC2CCCCC2)CC1 [D-chg/L-Cha/cyclohexylpropionic acid]
6.11 µM	C1CCC(C[C@H]2CN=C3N2C[C@@H](C2CCCCC2)N3CCC23CC4CC(CC(C4)C2)C3)CC1 [L-Cha/D-chg/1-adamantaneacetic acid]
16.2 µM	C1CCC(C[C@H]2CN=C3N2C[C@H](C2CCCCC2)N3CCC23CC4CC(CC(C4)C2)C3)CC1 [L-Cha/L-Chg/1-adamantaneacetic acid]
16.9 µM	CC(C)C[C@@H]1CN2C(=NC[C@@H]2C2CCCCC2)N1CCC12CC3CC(CC(C3)C1)C2 [L-Chg/D-leu/1-adamantaneacetic acid]
25.2 µM	CC(C)C[C@@H]1CN2C(=NC[C@@H]2C2CCCCC2)N1CCCC1CCCCC1 [L-Chg/D-leu/cyclohexylpropionic acid]
19.5 µM	CCN1C2=NC[C@H](Cc3ccccc3)N2C[C@H]1Cc1c[nH]c2ccccc12 [L-Phe/D-trp/acetic acid]
16.7 µM	c1ccc(C[C@H]2CN=C3N(CCC45CC6CC(CC(C6)C4)C5)[C@@H](Cc4ccccc4)CN32)cc1 [L-Phe/L-Phe/1-adamantaneacetic acid]
12.5 µM	O=[N+]([O-])c1ccc(CCN2C3=NC[C@H](Cc4ccccc4)N3C[C@@H]2Cc2ccccc2)c([N+](=O)[O-])c1 [L-Phe/L-Phe/2,4-dinitrophenylacetic acid]
14.1 µM	c1ccc(CC2CN3C(=NCC3Cc3ccccc3)N2CCc2ccc(-c3ccccc3)cc2)cc1 [L-Phe/L-Phe/4-biphenylacetic acid]
6.98 µM	c1ccc(CC2CN3C(=NCC3Cc3ccccc3)N2CCCCC2CCCCC2)cc1 [L-Phe/L-Phe/cyclohexylbutyric acid]
21.5 µM	c1ccc(CC2CN3C(=NCC3Cc3ccccc3)N2CCCC2CCCCC2)cc1 [L-Phe/L-Phe/cyclohexylpropionic acid]
24.8 µM	CCN1C2=NC[C@H](Cc3ccccc3)N2C[C@@H]1Cc1c[nH]c2ccccc12 [L-Phe/L-Trp/acetic acid]
